How the values were obtained:
[1] = tested on: circulating peripheral blood leukocytes; assay: in vivo leukocyte kinetics / response in asymptomatic rabbits; parameters: species or system New Zealand's albino, giant rabbits
Text: (§1) The pharmacodynamic study to assess the leuko-lymphocyte kinetics has been carried out in New Zealand's albino, giant, female, adult, asymptomatic (healthy) rabbits. The blood samples with EDTA (ethylene-diamino-tetraAcetic acid), non-coagulable, for the periodical weekly controls, have been obtained by aseptic puncture from the marginal vein of the outer ear. The count and the differential cytologic survey of the white series has been routinely performed in a "Coulter" (Coulter Cientifica, S.A., STKs model) differential analyzer, within the two hours following the extraction.
Hereinafter, there is a summary of the most significant results of the preclinical protocols which include different experimental conditions, different BRM-BLAS products and doses which vary in vary of their concentration of the product, frequency and number.
The leuko-lymphocyte mean values of the group run parallelly during the study, in general above the respective basal values before the treatment to which they return in the last two assessments. They reach the higher ones 7, 16 and 20 days after the first, second and third dose, FIG. 12, FIG. 13 and Table VIII (assessments: 3, 8 and 13).
A total number of 225 individual assessments and 45 of the group assessments have been performed, grouped in four evolutive periods moments. The "first" one includes the 40 individual assessments (8 of the group) after the two first doses, days 0 to 43rd; the "second", the 85 (17 of the group) after the third, fourth and fifth doses, days 46th to 147th; the "third", the first 50 (10 of the group) after the sixth, days 153rd to 213th, and the "fourth", the last 50 (10 of the group), days 220th to 282nd, respectively. The assessment of the group prior to the third dose (43rd day), the lymphocyte mean of which has been the lowest during the survey, has been taken as the natural reference baseline for the comparative analysis of punctual and grouped data.
This trail is subsequent to the protocol previously described and corresponds to the "fifth" moment of the global study, FIG. 14 and FIG. 15.
After the subcutaneous administration of a dose of 30 u/Kg (2.1 mcg/Kg) of the BRM-BLAS 278 (Cl) compounds 137 days after the sixth dose of the BRM-BLAS 320 (Ac) compounds, in the presence of high figures of the lymphocyte mean of the group, at the "fourth" moment, such figures were specifically exceeded by the 4th and 5th punctual weekly assessments of the "fifth" moment, 24th (184%) and 31st (180%) days, respectively, FIG. 14. Globally, 28% of the assessment exceed basal values by one or two standard deviations; 57% in three, and the difference is statistically in all of them. The resulting mean of the data gathered for the "fifth" moment with a 158% of the basal values, exceed those of the four previous moments, and the difference is statistically significant compared with those of the "first", "second" and "third", and exceeds that of the "first" in more than one standard deviation, FIG. 15 and (Table IX). […]

[2] = tested on: circulating peripheral blood lymphocytes; assay: in vivo lymphocyte kinetics / response in asymptomatic rabbits; parameters: species or system New Zealand's albino, giant rabbits
Text: as §1
Hereinafter, there is a summary of the most significant results of the preclinical protocols which include different experimental conditions, different BRM-BLAS products and doses which vary in vary of their concentration of the product, frequency and number. […]
This study comprises three concatenated experimental situations. The first one is focused on the vicissitudes of the leuko-lymphocyte kinetics occurred during a pause, "first" moment, that takes place months after several doses, mainly of BRM-BLAS 236 (Cl) compounds and includes 30 individual assessments (6 of the group) days 0 to 39. The second "second" moment, is centered on the successive changes occurred after the administration on the 39th day of an intravenous dose of 8 u/Kg (0.6 mcg/Kg) of the BRM-BLAS 278 (Ac) compounds and includes a total of 25 individual assessments (5 of the group), days 43rd to 68th. The third one, moments "third" to "seventh", analyzes the changes induced after the intravenous administration on the 68th day of 22 u/Kg (1.8 mcg/Kg) of BRM-BLAS 320 (Ac) compounds and includes […] (6 of the group×5 times), days 75th to 287th of the study. The assessment prior to the last dose, the lymphocyte average of which is the lowest of the group during the study, has been selected as the common baseline (100%) for reference of the comparative analysis between the assessments.

human lymphocytes = assay: in vitro non-specific lymphoproliferative response (RLP-I) to PHA, human lymphocyte cultures; assay type: cell-based; details: for RLP-I B < A, number of witness models / RLP-I B < A, percentage of witness models / RLP-I B > A, number of witness models / RLP-I B > A, percentage of witness models: Table V, PHA + BRM-BLAS (B) versus PHA (A); for number of cases with RLP-I B > A in 33-50% of the witness models / number of cases with RLP-I B > A in 67% of the witness models / number of cases with RLP-I B > A in 100% of the witness models / percentage of cases with RLP-I B > A in 33-50% of the witness models / percentage of cases with RLP-I B > A in 67% of the witness models / percentage of cases with RLP-I B > A in 100% of the witness models: Table VI, intragroup individual analysis
Method: The "in vitro" lymphocyte response has been assessed in samples of circulating and peripheral venous blood from asymptomatic blood donor adults of both sexes. In general, the lymphocyte cultures include in each case six experimental models called witnesses, and incorporate progressive doses between 0.25-6.0 units (20-500 ng) of the BRM-BLAS compounds and PHA. The RLP-I of each one has been morphologically determined and is expressed in absolute values of lymphoblasts/10,000.
Systematically, in all the cases it has been tabulated the RLP-I to the PHA, basal, of the PHA models; to the PHA+BRM-BLAS, of the "witness" models and the maximum individual response of the witness models (RMC), in each case.

Swiss mice = assay: single-dose intraperitoneal toxicity in mice; details: i.p. single dose; 236 (Cl) 800 mcg/Kg, 278 (Ac) 4.2 mg/Kg, 320 (Ac) 4.8 mg/Kg, respectively
patients with cancer = details: patients with favourable prognosis factors; cited from earlier work
[3] = three i.v. doses 5 U/Kg (300 ng/Kg) every 21 days, assessment 8, 37th day
[4] = three i.v. doses 5 U/Kg every 21 days
[5] = progressive i.v. doses, "second" moment
[6] = progressive i.v. doses, grouped results
[7] = single i.v. high dose 22 u/Kg (1.8 mcg/Kg)

Compound: NC1(C[n+]2ccccc2)CC(C(=O)O)NC1=O (stereo not shown) [BRM-BLAS 236 (Cl), 4-ammonium-4-(1-pyridiniomethyl) pyroglutamic acid dichloride]
- highest leukocyte mean value versus basal [1, 3]: 169%
- assessments with leukocyte mean above basal by more than three standard deviations [1, 4]: 5%
- assessments with leukocyte mean above basal by more than two standard deviations [1, 4]: 20%
- assessments with leukocyte mean above basal over the standard deviation [1, 4]: 55%
- assessments with statistically significant difference of leukocytes versus basal [1, 4]: 70%
- leukocyte response [1, 4]: increase in the number of leukocytes which affect granulocytes as well as lymphocytes in the same way
- time to higher leuko-lymphocyte mean values after first dose ([1]; three i.v. doses 5 U/Kg every 21 days, first dose): 7 days
- leuko-lymphocyte mean of "first" period versus "fourth" period and basal ([1]; three i.v. doses 5 U/Kg every 21 days, grouped results): practically by two standard deviations
- time to higher leuko-lymphocyte mean values after second dose ([1]; three i.v. doses 5 U/Kg every 21 days, second dose): 16 days
- time to higher leuko-lymphocyte mean values after third dose ([1]; three i.v. doses 5 U/Kg every 21 days, third dose): 20 days
- highest lymphocyte mean value versus basal [2, 3]: 157%
- assessments with lymphocyte mean above basal by more than three standard deviations [2, 4]: 10%
- assessments with lymphocyte mean above basal by more than two standard deviations [2, 4]: 20%
- assessments with lymphocyte mean above basal over the standard deviation [2, 4]: 75%
- assessments with statistically significant difference of lymphocytes versus basal [2, 4]: 35%
- RLP-I B < A, number of witness models (human lymphocytes): 20 Num.
- RLP-I B < A, percentage of witness models (human lymphocytes): 30%
- RLP-I B > A, number of witness models (human lymphocytes): 46 Num.
- RLP-I B > A, percentage of witness models (human lymphocytes): 70%
- number of cases with RLP-I B > A in 33-50% of the witness models (human lymphocytes): 11 Num.
- number of cases with RLP-I B > A in 67% of the witness models (human lymphocytes): 9 Num.
- number of cases with RLP-I B > A in 100% of the witness models (human lymphocytes): 2 Num.
- percentage of cases with RLP-I B > A in 33-50% of the witness models (human lymphocytes): 100%
- percentage of cases with RLP-I B > A in 67% of the witness models (human lymphocytes): 82%
- percentage of cases with RLP-I B > A in 100% of the witness models (human lymphocytes): 18%
- tolerance / toxicity, single dose (Swiss mice): perfectly tolerated without evidences of toxicity

Compound: CC(=O)NC1(C[n+]2ccccc2)CC(C(=O)O)N(C(C)=O)C1=O (stereo not shown) [BRM-BLAS 320 (Ac), 1-acetyl-4-acetylamino-4-(1-pyridiniomethyl) pyroglutamic acid acetate]
- animals with leukocyte mean at "fourth" exceeding "first" moment by two or three standard deviations ([1]; progressive i.v. doses): 40%
- assessments with leukocyte mean exceeding basal by one standard deviation ([1]; progressive i.v. doses): 4.4%
- leukocyte punctual assessments versus basal ([1]; progressive i.v. doses): the difference is never became statistically significant
- leukocyte mean versus basal, 227th day ([1]; progressive i.v. doses, 227th day): 129%
- leukocyte mean versus basal, 241st day ([1]; progressive i.v. doses, 241st day): 136%
- animals with individual lymphocyte mean "fourth" versus "first" moment higher by three standard deviations ([2]; progressive i.v. doses): 60%
- animals with individual lymphocyte mean "fourth" versus "first" moment higher by two standard deviations ([2]; progressive i.v. doses): 40%
- lymphocyte response ([2]; progressive i.v. doses 5-30 units/Kg (0.4-2.4 mcg/Kg)): selective and significant increase in the number of lymphocytes that starts after the third dose and reaches its maximum level after the sixth
- assessments with lymphocyte mean exceeding one standard deviation, "second" moment [2, 5]: 41%
- assessments with statistically significant lymphocyte difference, "second" moment [2, 5]: 43%
- highest average lymphocyte value versus basal ([2]; progressive i.v. doses, day 241st of the study, "fourth" moment): 178%
- assessments exceeding mean lymphocyte basal values by more than one, two or three standard deviations, "third" moment ([2]; progressive i.v. doses, days 153rd to 213th): 80%
- assessments exceeding mean lymphocyte basal values by more than one, two or three standard deviations, "fourth" moment ([2]; progressive i.v. doses, days 220th to 282nd): 100%
- grouped lymphocyte mean versus baseline, "first" period [2, 6]: 110%
- grouped lymphocyte mean versus baseline, "fourth" period [2, 6]: 152%
- grouped lymphocyte mean versus baseline, "second" period [2, 6]: 120%
- grouped lymphocyte mean versus baseline, "third" period [2, 6]: 131%
- cases with individual lymphocyte mean at "seventh" exceeding "first" moment by one, two or three standard deviations ([2]; single i.v. high dose 22 u/Kg): 80%
- lymphocyte mean versus baseline from the 53rd day [2, 7]: surpasses the baseline by two or three standard deviations from the 53rd day
- onset of lymphocyte increase after the dose [2, 7]: twenty days after the high dose
- highest lymphocyte mean versus basal ([2]; single i.v. high dose 22 u/Kg (1.8 mcg/Kg), 88th and 202nd days after dose): 212%
- duration of statistically significant lymphocyte increase ([2]; single i.v. high dose 22 u/Kg (1.8 mcg/Kg), from 53rd day): statistically significant uninterruptedly, until the 213th day
- selectivity for lymphocytes versus granulocytes and monocytes ([2]; single i.v. high dose 22 u/Kg, FIG. 18 and FIG. 19): sustained and selective immunomodulating activity or effect of the BRM-BLAS 320 (Ac) compounds on subpopulations of lymphocytes without detriment to the number of granulocytes and monocytes
- RLP-I B < A, number of witness models (human lymphocytes): 17 Num.
- RLP-I B < A, percentage of witness models (human lymphocytes): 21%
- RLP-I B > A, number of witness models (human lymphocytes): 65 Num.
- RLP-I B > A, percentage of witness models (human lymphocytes): 70%
- number of cases with RLP-I B > A in 33-50% of the witness models (human lymphocytes): 14 Num.
- number of cases with RLP-I B > A in 67% of the witness models (human lymphocytes): 9 Num.
- number of cases with RLP-I B > A in 100% of the witness models (human lymphocytes): 5 Num.
- percentage of cases with RLP-I B > A in 33-50% of the witness models (human lymphocytes): 100%
- percentage of cases with RLP-I B > A in 67% of the witness models (human lymphocytes): 64%
- percentage of cases with RLP-I B > A in 100% of the witness models (human lymphocytes): 36%
- tolerance / toxicity, single dose (Swiss mice): perfectly tolerated without evidences of toxicity

Compound: IFN-α
- effect on tumor metastases (patients with cancer): can cause the regression of tumor metastases
